{"source": "paper PMC9292024", "about": "(The New Phytologist, 2021)", "key": {"SbMAX1c": {"target": "T1, SbMAX1c (Sorghum bicolor, UniProt A0A809Q895)", "T1 sequence (A0A809Q895 1-545)": "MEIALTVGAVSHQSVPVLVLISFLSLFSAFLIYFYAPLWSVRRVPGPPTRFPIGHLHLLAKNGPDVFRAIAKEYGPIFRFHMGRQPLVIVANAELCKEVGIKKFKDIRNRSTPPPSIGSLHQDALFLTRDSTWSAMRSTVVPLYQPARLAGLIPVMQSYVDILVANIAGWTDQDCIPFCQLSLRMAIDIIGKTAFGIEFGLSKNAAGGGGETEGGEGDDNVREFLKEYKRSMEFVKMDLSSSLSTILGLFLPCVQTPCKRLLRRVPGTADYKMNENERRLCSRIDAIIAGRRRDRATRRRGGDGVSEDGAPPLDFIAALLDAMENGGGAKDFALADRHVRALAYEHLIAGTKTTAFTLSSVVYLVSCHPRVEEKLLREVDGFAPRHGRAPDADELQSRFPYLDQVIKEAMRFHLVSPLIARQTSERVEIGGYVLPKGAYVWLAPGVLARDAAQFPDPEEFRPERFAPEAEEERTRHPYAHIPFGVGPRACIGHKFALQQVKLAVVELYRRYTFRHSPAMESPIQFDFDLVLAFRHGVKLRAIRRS", "test": "yeast microsome conversion, LC-MS/MS", "format": "biochemical", "settings": "33 μM rac-CL, 500 μM NADPH, 28°C, 1 h"}, "SbMAX1d": {"target": "T2, SbMAX1d (Sorghum bicolor, UniProt A0A809QVY0)", "T2 sequence (A0A809QVY0 1-539)": "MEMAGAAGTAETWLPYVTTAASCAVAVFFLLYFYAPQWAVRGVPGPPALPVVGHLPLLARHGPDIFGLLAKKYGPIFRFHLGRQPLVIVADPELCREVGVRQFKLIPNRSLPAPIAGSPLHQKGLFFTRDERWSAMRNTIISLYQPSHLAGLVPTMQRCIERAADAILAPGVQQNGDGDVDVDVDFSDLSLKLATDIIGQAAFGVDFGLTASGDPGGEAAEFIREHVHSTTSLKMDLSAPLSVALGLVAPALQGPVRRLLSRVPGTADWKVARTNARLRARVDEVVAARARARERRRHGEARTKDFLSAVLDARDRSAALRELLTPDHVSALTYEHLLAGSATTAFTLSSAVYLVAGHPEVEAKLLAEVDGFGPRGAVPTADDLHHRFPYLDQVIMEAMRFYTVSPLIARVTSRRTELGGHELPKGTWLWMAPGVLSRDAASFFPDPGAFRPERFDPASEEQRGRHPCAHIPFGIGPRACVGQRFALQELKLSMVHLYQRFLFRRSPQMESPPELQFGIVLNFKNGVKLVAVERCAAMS", "test": "yeast microsome conversion, LC-MS/MS", "format": "biochemical", "settings": "33 μM rac-CL, 500 μM NADPH, 28°C, 1 h"}}}
{"smiles": "CC1=CC(O/C=C(C)\\C=C\\C2=C(C)CCCC2(C)C)OC1=O", "note": "(racemic) [rac‐CL]", "values": [{"measurement": "yeast microsome conversion, LC-MS/MS", "setting": "SbMAX1c", "value": "expressing SbMAX1b, SbMAX1c, or SbMAX1d after incubation with rac‐CL"}, {"measurement": "yeast microsome conversion, LC-MS/MS", "setting": "SbMAX1d", "value": "expressing SbMAX1b, SbMAX1c, or SbMAX1d after incubation with rac‐CL"}]}
